Source: patent publication US9968570B2, “Compositions and methods for treating cancer” (Chemo-Enhanced LLC, priority 2013, dated 2018)

Legend:
[1] = system: CaOV3 cells; test: Confocal microscopy of C6-NBD ceramide entry into ovarian cancer cells; assay type: cell-based, human; settings: for effect on C6 ceramide entry into the cells: CaOV3 cells pretreated with inhibitor, C6-NBD-ceramide; for effect on polarized entry of C6 ceramide: CaOV3 cells pretreated 1 h, then C6-NBD
Method: (A and C) CaOV3 cells were cultured in 8-well chamber slides and treated with C6-NBD ceramide (6 μg/ml). (B) The cells were fixed with formaldehyde at various times following treatment or were treated with the indicated doses of C6-NBD-ceramide, with or without fixation. The cells were processed and observed under a confocal microscope.
CaOV3 cells were cultured in 8-well chamber slides and treated with or without (A) a lipid raft/caveolae inhibitor or with (B) water channel inhibitors, CuSO4 or NiCl2. The cells were fixed with formaldehyde, processed and observed under a confocal microscope.
(A) CaOV3 cells were cultured in 8-well chamber slides, pretreated with taxol or doxorubicin for 1 h and then treated with C6-NBD-ceramide for 5 or 15 min. The cells were fixed with formaldehyde and processed for confocal microscopy. (B) The cells were pretreated with taxol and then C6-NBD-ceramide and processed for confocal microscopy without fixation.
The cells were plated in eight-well chamber slides (Lab-Tek; Nalge Nunc International, Naperville, Ill., USA) and treated with various reagents, including C6-NBD ceramide, taxol and CuSO4. Next, the cells were either left untreated or were fixed for 20 min in fresh 4% paraformaldehyde-PBS. The cell nuclei were also stained with Hoechst (1 μg/ml in PBS) for 10 min. The slides were mounted with anti-fade (Life Technologies, Grand Island, N.Y., USA) and stored in the dark until viewing. The samples were observed under a confocal microscope and images were captured by Zen 2009 Light Edition (Carl Zeiss AG, Oberkochen, Germany).

[2] = system: L3.6 pancreatic cancer cells; test: MTT cell viability assay, C6-Ceramide / chemo agents / pathway inhibitors; assay type: cell-based, human; settings: 48 h; for L3.6 cell viability, agent alone: LY 294002 1 μM, rapamycin 100 nM, U0126 1 μg/ml, Gemcitabine 1 μg/ml; for cell death: MTT
Method: L3.6 pancreatic cancer cells, cultured either in basic DMEM medium or with 10% FBS, were treated with indicated doses of Taxol in the presence or absence of C6 Ceramide (10 μg/ml) for 48 hours, cell viability was detected by MTT assay (FIGS. 4A and B). L3.6 cells, cultured either in basic DMEM medium or with 10% FBS, were treated with indicated dose of C6 Ceramide in the presence or absence of Taxol (1.5 μg/ml) for 48 hours, cell viability was detected by MTT assay as described (FIGS. 4C and D). Mitomycin C (10 μg/ml) was always present in the media to prevent cell proliferation from occurring. The data represent the mean±SD of at least triplicate experiments. *P<0.05 versus group without C6 Ceramide presents (FIGS. 4A and B). **P<0.05 versus group without Taxol presents (C and D).
(§1) Mitomycin C (10 ug/ml) was always present in the media to prevent cell proliferation from occurring.
FIG. 9 depicts data showing the effect of survival pathway inhibitors on cytotoxicity of Taxol and Gemcitabine in L3.6 pancreatic tumor cells. L3.6 cells were pretreated with various inhibitors including PI3K/AKT inhibitor LY 294002 (LY, 1 μM), mTORC1 inhibitor rapamycin (100 nM), MEK/ERK inhibitor U0126 (1 μg/ml), alone or in the presence of Taxol (1.5 μg/ml) or Gemcitabine (1 μg/ml) for 48 hours, with cell death detected 48 hours later (FIG. 9, left). Effects of various inhibitors as mentioned above on AKT/mTORC1 and ERK activation were also examined by Western blots using commercially available antibodies (FIG. 9, right). *P<0.05 versus group without C6 Ceramide presents. […] In FIG. 9, left panel, the DMSO=left bar; LY294002=second left bar; U0126=middle bar; Rapamycin=second right bar; and LY+U0126=right bar.
(§2) Cell viability was measured by the 3-(4,5-dimethylthiazol-2-yl)-2,5-diphenyltetrazolium bromide (MTT) method, as described previously (Cao, C., et al. Sci Signal, 2: ra17, 2009; and Vanhaesebroeck, B., et al. Annu Rev Biochem, 70: 535-602, 2001). Briefly, the cells were collected and seeded in 96-well plate at a density of 2×10^5 cells/cm^2. Different seeding densities were optimized at the beginning of the experiments. After overnight incubation cells were exposed to fresh medium containing indicated reagents at 37° C. After incubation for different time periods, 20 μl of MTT tetrazolium (Sigma, St. Louis, Mo.) salt dissolved in Hank's balanced salt solution at a concentration of 5 mg/ml was added to each well and incubated in a CO2 incubator for an additional 4 hours. The medium was subsequently aspirated from each well and 150 μl of DMSO (Sigma, St. Louis, Mo.) was added to dissolve formazan crystals and the absorbance of each well was obtained using a Dynatech MR5000 plate reader at a test wavelength of 490 nm with a reference wavelength of 630 nm.

[3] = system: MIA-PaCa2 (MIA) cells; test: MTT cell viability assay, C6-Ceramide with chemo agents; assay type: cell-based, human; settings: MIA cells (FIG. 6C), basic DMEM; Gemcitabine 3 μg/ml, Taxol 15 ug/ml, C6-Ceramide 10 ug/ml, Cetuximab 10 ug/ml
Method: as §1, §2

[4] = system: Panc-1; test: as above; assay type: cell-based, human; settings: Panc-1 (FIG. 6B), basic DMEM; Gemcitabine 3 μg/ml, Taxol 15 ug/ml, C6-Ceramide 10 ug/ml, Cetuximab 10 ug/ml
Method: as §1, §2

[5] = system: L3.6 pancreatic cells; assay type: in vivo; settings: for tumor volume and mouse survival: Taxol 3 mg/kg, C6-Ceramide 10 mg/kg, I.P. 3x/wk, vs control treatment group
Method: SCID/Beige/Taconic nude male mice, 22-25 g, 6-8 weeks old were ear tagged and randomized into 4 different groups (Control, Ceramide, Paclitaxel, Ceramide+Paclitaxel) of 5 mice each prior to inoculation s.c. with 2×10^6 L3.6 cells in a volume 0.1 ml into the internal surface of the right thigh. Treatment was started 4 days after L3.6 cell injection with thrice weekly (3×/wk) intraperitoneal (I.P.) injections of Paclitaxel 3.0 mg/kg with or without C6-Ceramide (10 mg/kg) for 2 weeks. Mice survival (A and C), tumor volume (in cm^3) (B), mice body weight (in grams) were recorded (E). Average rate of tumor development was calculated by total tumor volume dividing by total number of days monitored (D).
FIG. 7A and FIG. 7D: SCID/Beige/Taconic nude male mice, 22-25 g, 6-8 weeks old were ear tagged and randomized into 4 different groups (Control, Ceramide, Gemcitabine, Ceramide+Gemcitabine) combining 5 mice each prior to inoculation s.c. with 2×10^6 L3.6 cells in a volume 0.1 ml into the internal surface of the right thigh. Treatment was started 4 days after L3.6 cell injection with thrice weekly (3×/wk) intraperitoneal (I.P.) injections of Gemcitabine (two doses: […]) with or without C6-Ceramide ([…]) for 2 weeks. […] Mice survival (A, B and E) and tumor volume (in cm^3) (C and D) were recorded (E). In (E), the left bar indicates treatment without C6, and the right bar indicates treatment with C6.
SCID/Beige/Taconic male mice were inoculated with 2×10^6 L3.6 pancreatic cells and begun treatment 4 days post tumor implant with thrice weekly (3×/wk) intraperitoneal (I.P.) injections of Paclitaxel (Taxol) 3.0 mg/kg or Gemcitabine (Gem) 10 mg/kg—after treatment and were autopsied when near death (as per IRB committee). Mouse survival, tumor volume (in cm^3), and body weight (in grams) were recorded. Average rate of tumor development was calculated by dividing total tumor volume by total number of days monitored.

[6] = system: L3.6 pancreatic cancer cells; test: MTT cell viability assay, C6-Ceramide / chemo agents / pathway inhibitors; assay type: cell-based, human; settings: L3.6 (FIG. 6A), basic DMEM; Gemcitabine 3 μg/ml, Taxol 15 ug/ml, C6-Ceramide 10 ug/ml, Cetuximab 10 ug/ml
[7] = system: AKT/mTORC1 and ERK; test: Western blot of AKT/mTORC1 and ERK activation in L3.6 cells; assay type: cell-based, human; settings: 2-6 h, Gemcitabine 1 μg/ml, Taxol 1.5 μg/ml, C6 Ceramide 10 μg/ml
Source text: Antibody binding was detected with the enhanced chemiluminescence (ECL) detection system (Amersham Biosciences, Piscataway, N.J.).

[8] = L3.6, basic DMEM medium, Taxol 1.5 ug/ml, C6-ceramide 10 ug/ml
[9] = L3.6 cultured in 10% FBS, C6-Ceramide 2.5 μg/ml, Taxol 1.5 μg/ml

Structure (SMILES) | effect on C6 ceramide entry into the cells [1] | L3.6 cell viability, agent alone ([2]; Taxol 1.5 μg/ml) | cell death [3] | cell death [4] | cell death [6] | further results
CCCCC[C@@H](O)[C@H]1C(=O)O[C@H](C)[C@@H](O)/C=C/C=C/C=C/C=C/C=C(\C)[C@@H](O)C[C@H](O)C[C@H](O)C[C@H](O)C[C@H](O)C[C@H](O)C[C@@H]1O [Filipin] | inhibited the C6 ceramide entry into the CaOV3 cells | – | – | – | – | –
CC(=O)O[C@H]1C(=O)[C@@]2(C)[C@H]([C@H](OC(=O)c3ccccc3)[C@]3(O)C[C@H](OC(=O)[C@H](O)[C@@H](NC(=O)c4ccccc4)c4ccccc4)C(C)=C1C3(C)C)[C@]1(OC(C)=O)CO[C@@H]1C[C@@H]2O [Taxol, paclitaxel] | – | little or no significant effect | None of Gemcitabine (3 μg/ml), Taxol (15 ug/ml) or C6-Ceramide (10 ug/ml) alone had a significant effect | None of Gemcitabine (3 μg/ml), Taxol (15 ug/ml) or C6-Ceramide (10 ug/ml) alone had a significant effect | None of Gemcitabine (3 μg/ml), Taxol (15 ug/ml) or C6-Ceramide (10 ug/ml) alone had a significant effect | cell death [2, 8]: 30%; cell death [2, 9]: neither of these two alone had any measurable effect; tumor volume and mouse survival [5]: minimal effects on tumor volume and mouse survival; effect on polarized entry of C6 ceramide [1]: disrupted the polarized pattern of C6 entry
COc1cccc2c1C(=O)c1c(O)c3c(c(O)c1C2=O)C[C@@](O)(C(=O)CO)C[C@@H]3O[C@H]1C[C@H](N)[C@H](O)[C@H](C)O1 [doxorubicin] | – | – | – | – | – | effect on polarized entry of C6 ceramide [1]: had no such effect
N#CC(=C(N)Sc1ccccc1N)C(C#N)=C(N)Sc1ccccc1N [Fraction U0126, 1,4-diamino-2,3-dicyano-1,4-bis[2-aminophenylthio]butadiene] | – | little or no significant effect | – | – | – | –
CCCCCCCCCCCCC/C=C/[C@@H](O)[C@H](CO)NC(=O)CCCCC [Fraction C6-ceramide, N-hexanoyl-D-sphingosine] | – | – | None of Gemcitabine (3 μg/ml), Taxol (15 ug/ml) or C6-Ceramide (10 ug/ml) alone had a significant effect | None of Gemcitabine (3 μg/ml), Taxol (15 ug/ml) or C6-Ceramide (10 ug/ml) alone had a significant effect | None of Gemcitabine (3 μg/ml), Taxol (15 ug/ml) or C6-Ceramide (10 ug/ml) alone had a significant effect | cell death [2, 8]: no effect; cell death [2, 9]: neither of these two alone had any measurable effect; tumor volume and mouse survival [5]: minimal effects on tumor volume and mouse survival; AKT/mTORC1 and ERK activation [7]: moderate inhibition
O=S(=O)([O-])[O-].[Cu+2] [CuSO4] | inhibits C6 ceramide entry into the cells | – | – | – | – | –
[Cl][Ni][Cl] [NiCl2] | does not | – | – | – | – | –
Nc1ccn([C@@H]2O[C@H](CO)[C@@H](O)C2(F)F)c(=O)n1 [Gemcitabine, gemcitabine] | – | little or no significant effect | None of Gemcitabine (3 μg/ml), Taxol (15 ug/ml) or C6-Ceramide (10 ug/ml) alone had a significant effect | None of Gemcitabine (3 μg/ml), Taxol (15 ug/ml) or C6-Ceramide (10 ug/ml) alone had a significant effect | None of Gemcitabine (3 μg/ml), Taxol (15 ug/ml) or C6-Ceramide (10 ug/ml) alone had a significant effect | survival and tumor growth ([5]; Gemcitabine 5 mg/kg and 10 mg/kg, C6-ceramide 10 mg/kg, I.P. 3x/wk for 2 weeks): limited effect on survival and tumor growth; AKT/mTORC1 and ERK activation [7]: no effect
